{"source": "patent US9809623B2", "about": "“α4β7 peptide monomer and dimer antagonists” (Protagonist Therapeutics, Inc., priority 2014, dated 2017)", "note": "Numbered stars: 1 amine (or outer) side, 2 acyl side, 3 side chain; on linkers, the order of the positions; unused ones are H or OH. Bridge positions count the residues as written; N and C are the ends. Square brackets hold non-standard residues; d marks the D form. Peptide text beside a SMILES is read from it. I, II: the chains in the order shown. Phe(3,4-Cl2) = N[C@@H](Cc1ccc(Cl)c(Cl)c1)C(=O)O; 2Nal = N[C@@H](Cc1ccc2ccccc2c1)C(=O)O; Diglycolyl = O=C(COCC(=O)[*:2])[*:1]; NMeR = CN[C@@H](CCCNC(=N)N)C(=O)O; Pen = CC(C)(S)[C@H](N)C(=O)O", "data": [{"molecular_target": "α4β7 (Homo sapiens, UniProt P13612+P26010)", "sequence (P13612 34-1032)": "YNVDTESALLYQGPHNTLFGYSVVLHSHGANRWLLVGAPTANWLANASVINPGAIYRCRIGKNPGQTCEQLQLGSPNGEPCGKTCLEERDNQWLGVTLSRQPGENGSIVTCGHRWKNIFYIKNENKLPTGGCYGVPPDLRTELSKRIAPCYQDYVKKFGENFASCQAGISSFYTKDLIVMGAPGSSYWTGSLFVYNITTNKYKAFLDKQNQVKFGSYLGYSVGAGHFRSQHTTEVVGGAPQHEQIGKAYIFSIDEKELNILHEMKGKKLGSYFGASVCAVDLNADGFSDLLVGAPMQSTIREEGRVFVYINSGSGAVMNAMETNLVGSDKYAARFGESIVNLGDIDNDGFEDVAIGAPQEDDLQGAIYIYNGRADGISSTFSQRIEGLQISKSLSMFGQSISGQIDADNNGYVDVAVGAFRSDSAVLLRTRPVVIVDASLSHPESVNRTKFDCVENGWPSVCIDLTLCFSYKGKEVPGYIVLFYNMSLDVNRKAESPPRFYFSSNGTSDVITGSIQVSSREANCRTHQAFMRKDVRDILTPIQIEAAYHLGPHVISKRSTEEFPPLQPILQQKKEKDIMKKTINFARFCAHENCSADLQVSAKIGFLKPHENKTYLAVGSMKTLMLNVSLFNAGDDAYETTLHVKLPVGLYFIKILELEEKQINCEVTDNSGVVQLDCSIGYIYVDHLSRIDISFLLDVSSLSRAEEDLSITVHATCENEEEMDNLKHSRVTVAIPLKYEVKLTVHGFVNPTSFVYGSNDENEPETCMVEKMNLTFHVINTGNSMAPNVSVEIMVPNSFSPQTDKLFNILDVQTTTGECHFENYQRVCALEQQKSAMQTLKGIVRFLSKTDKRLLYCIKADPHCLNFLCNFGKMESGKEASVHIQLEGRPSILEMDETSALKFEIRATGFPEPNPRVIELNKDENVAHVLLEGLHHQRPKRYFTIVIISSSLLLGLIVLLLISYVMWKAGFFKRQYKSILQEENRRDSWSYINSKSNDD", "sequence (P26010 20-798)": "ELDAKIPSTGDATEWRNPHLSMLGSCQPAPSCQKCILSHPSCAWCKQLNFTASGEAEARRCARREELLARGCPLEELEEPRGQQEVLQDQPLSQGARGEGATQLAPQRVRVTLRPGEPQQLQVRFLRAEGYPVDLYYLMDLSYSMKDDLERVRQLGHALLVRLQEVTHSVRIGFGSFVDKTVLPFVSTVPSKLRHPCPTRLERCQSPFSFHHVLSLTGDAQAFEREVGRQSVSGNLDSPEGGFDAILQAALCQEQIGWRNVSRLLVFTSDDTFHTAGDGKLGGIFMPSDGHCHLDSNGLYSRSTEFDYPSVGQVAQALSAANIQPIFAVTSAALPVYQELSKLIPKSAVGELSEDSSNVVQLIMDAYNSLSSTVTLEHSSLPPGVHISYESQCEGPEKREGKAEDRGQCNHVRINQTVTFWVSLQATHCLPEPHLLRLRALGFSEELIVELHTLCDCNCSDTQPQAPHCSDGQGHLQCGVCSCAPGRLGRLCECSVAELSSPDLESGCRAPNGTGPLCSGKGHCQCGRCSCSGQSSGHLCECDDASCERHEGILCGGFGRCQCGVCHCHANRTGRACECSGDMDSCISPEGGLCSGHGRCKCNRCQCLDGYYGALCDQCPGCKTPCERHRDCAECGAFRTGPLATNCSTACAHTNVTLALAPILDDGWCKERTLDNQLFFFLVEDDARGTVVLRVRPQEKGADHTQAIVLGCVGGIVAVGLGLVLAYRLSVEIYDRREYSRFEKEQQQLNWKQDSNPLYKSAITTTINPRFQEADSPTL", "assay": "α4β7-MAdCAM Cell Adhesion Assay (RPMI 8866 human cells)", "format": "cell-based", "set-up": "host or cells: RPMI 8866 human B lymphoblastoid cells", "details": "Table 3-B, Potency (α4β7); range classes; read-out: α4β7 cell (Hu) IC50", "in_short": "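Adhesion read-out: MTT absorbance at 570 nm minus no-cell wells, after three washes. Plates coated with rh MAdCAM-1/Fc received peptide dilutions plus 200,000 RPMI 8866 cells in Mn2+ (1 mM)-supplemented DMEM, 0.1% BSA, HEPES pH 7, incubated 30-45 min, 37 °C.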", "units": {"IC50": "nM"}, "values": [{"compound": "CC(=O)N[C@@H]1C(=O)N(C)[C@@H](CCCNC(=N)N)C(=O)N[C@@H](CO)C(=O)N[C@@H](CC(=O)O)C(=O)N[C@@H]([C@@H](C)O)C(=O)N[C@@H](CCC(N)=O)C(=O)N[C@H](C(=O)N[C@@H](Cc2ccc3ccccc3c2)C(=O)N[C@H](CCC(=O)O)C(N)=O)C(C)(C)SSC1(C)C", "note": "[compound 163] (Ac-[Pen][NMeR]SDTQ[Pen][2Nal][dE]-NH2; disulfide 1-7)", "IC50": "1000 to 10000"}, {"compound": "CC(=O)N[C@@H]1C(=O)N(C)[C@@H](CCCNC(=N)N)C(=O)N[C@@H](CO)C(=O)N[C@@H](CC(=O)O)C(=O)N[C@@H]([C@@H](C)O)C(=O)N[C@@H](CC(C)C)C(=O)N[C@H](C(=O)N[C@@H](Cc2ccc(Cl)c(Cl)c2)C(=O)N[C@H](CCC(=O)O)C(=O)N[C@H](CCCCNC(=O)COCC(=O)NCCCC[C@@H](NC(=O)[C@@H](CCC(=O)O)NC(=O)[C@H](Cc2ccc(Cl)c(Cl)c2)NC(=O)[C@H]2NC(=O)[C@H](CC(C)C)NC(=O)[C@H]([C@@H](C)O)NC(=O)[C@H](CC(=O)O)NC(=O)[C@H](CO)NC(=O)[C@H](CCCNC(=N)N)N(C)C(=O)[C@@H](NC(C)=O)C(C)(C)SSC2(C)C)C(N)=O)C(N)=O)C(C)(C)SSC1(C)C", "note": "[compound 102] (I: Ac-[Pen][NMeR]SDTL[Pen][Phe(3,4-Cl2)][dE][dK]-NH2 / II: Ac-[Pen][NMeR]SDTL[Pen][Phe(3,4-Cl2)][dE][dK]-NH2; disulfide I:1-I:7, II:1-II:7; linker I:10-II:10 via Diglycolyl)", "IC50": "100 to 500"}, {"compound": "CC(=O)N[C@@H]1C(=O)N(C)[C@@H](CCCNC(=N)N)C(=O)N[C@@H](CO)C(=O)N[C@@H](CC(=O)O)C(=O)N[C@@H]([C@@H](C)O)C(=O)N[C@@H](CC(C)C)C(=O)N[C@H](C(=O)N[C@@H](Cc2c[nH]c3ccccc23)C(=O)N[C@@H](CC(N)=O)C(=O)N[C@H](CCCCNC(=O)COCC(=O)NCCCC[C@@H](NC(=O)[C@H](CC(N)=O)NC(=O)[C@H](Cc2c[nH]c3ccccc23)NC(=O)[C@H]2NC(=O)[C@H](CC(C)C)NC(=O)[C@H]([C@@H](C)O)NC(=O)[C@H](CC(=O)O)NC(=O)[C@H](CO)NC(=O)[C@H](CCCNC(=N)N)N(C)C(=O)[C@@H](NC(C)=O)C(C)(C)SSC2(C)C)C(N)=O)C(N)=O)C(C)(C)SSC1(C)C", "note": "[compound 83] (I: Ac-[Pen][NMeR]SDTL[Pen]WN[dK]-NH2 / II: Ac-[Pen][NMeR]SDTL[Pen]WN[dK]-NH2; disulfide I:1-I:7, II:1-II:7; linker I:10-II:10 via Diglycolyl)", "IC50": "50 to 100"}, {"compound": "CC(=O)N[C@@H]1C(=O)N(C)[C@@H](CCCNC(=N)N)C(=O)N[C@@H](CO)C(=O)N[C@@H](CC(=O)O)C(=O)N[C@@H]([C@@H](C)O)C(=O)N[C@@H](CC(C)C)C(=O)N[C@H](C(=O)N[C@@H](Cc2ccc3ccccc3c2)C(=O)N[C@@H](C(=O)N[C@H](CCCCNC(=O)COCC(=O)NCCCC[C@@H](NC(=O)[C@H](NC(=O)[C@H](Cc2ccc3ccccc3c2)NC(=O)[C@H]2NC(=O)[C@H](CC(C)C)NC(=O)[C@H]([C@@H](C)O)NC(=O)[C@H](CC(=O)O)NC(=O)[C@H](CO)NC(=O)[C@H](CCCNC(=N)N)N(C)C(=O)[C@@H](NC(C)=O)C(C)(C)SSC2(C)C)[C@H](C)O)C(N)=O)C(N)=O)[C@H](C)O)C(C)(C)SSC1(C)C", "note": "[compound 140] (I: Ac-[Pen][NMeR]SDTL[Pen][2Nal][dT][dK]-NH2 / II: Ac-[Pen][NMeR]SDTL[Pen][2Nal][dT][dK]-NH2; disulfide I:1-I:7, II:1-II:7; linker I:10-II:10 via Diglycolyl)", "IC50": "10 to 25"}]}]}
